Read-outs that look alike come from different tables or passages of the source.
Experiments:
[1] = target: T1, Torpedo-nAChR of embryonic muscle type (α1)2β1γδ (Torpedo marmorata, UniProt P02711+Q6S3H8+Q6S3H9); experiment: microplate receptor-binding assay, competition with biotin-α-bungarotoxin
[2] = target: T1, Torpedo-nAChR of embryonic muscle type (α1)2β1γδ; experiment: as above; remark: listed apart in the source

Compound | IC50 [1] [µM] | IC50 [2] [µM]
28-O-palmitoyl ester of pinnatoxin-G [Palmitoyl-PnTX-G] | 13.1 | 
C=CC1=C[C@@H]2[C@@H]3O[C@]4(C[C@H]5CCC[C@@]6(CC[C@@]7(O[C@@H](CC[C@@]7(C)O)CC(=C)CCCC7=NC[C@H](C)[C@@H](C)C[C@@]72CC1)O6)O5)C[C@@H](C)[C@@H](O)[C@H]3O4 [PnTX-G, pinnatoxin-G] |  | 0.0186

From paper PMC7657664 (Harmful algae, 2020)
